Results on 5 molecules are retold here after paper PMC9317670, “Temporal and Wash-Out Studies Identify Medicines for Malaria Venture Pathogen Box Compounds with Fast-Acting Activity against Both Trypanosoma cruzi and Trypanosoma brucei” (Microorganisms, 2022).

Like-named read-outs stand apart in the source and are kept apart here. Where only a bound is given, the exact number is not on record here.

For orientation: IC50 means the midpoint of a concentration-inhibition curve. In general, LogP refers to the decadic logarithm of the partition coefficient of the neutral form, usually between octanol and water.

In series [1] the test system is T.b. brucei. Also noted: method as in PMID 26258172. As to conditions: ref [53]; read-out: IC50 T.b. brucei, previously reported; cited from earlier work.
Series [2] concerns T. cruzi. Also noted: method as in PMID 25583723. The settings on record: 96 h; ref [54]; read-out: IC50 T. cruzi following 96 h incubation; cited from earlier work.
The subject of series [3] is T. cruzi Tulahuen strain parasites in 3T3 host cells. The series is described as follows: T. cruzi 48 h image-based assay. The format is cell-based, Trypanosoma cruzi.
For series [4] the test system is unchanged. Also noted: method as in PMID 28674055. The settings on record: liquid stocks; ref [16]; read-out: IC50 T. cruzi in the previous studies; cited from earlier work.
The subject of another series is HEPG2 cells. The series is described as follows: HEPG2 cytotoxicity assay. The format is cell-based, human. As to conditions: HEPG2, 72 h, NA = not active, highest dose 79 µM unless given.
A further series concerns T. cruzi and T.b. brucei. The series is described as follows: Speed of action and cidality classification from temporal and wash off assays. The format is cell-based, Trypanosoma cruzi, Trypanosoma brucei brucei. As to conditions: for Speed of Action (FA/SA): TC = T. cruzi, TBB = T.b. brucei; for Speed of Action (Table 5): prioritised compounds, Fast/Slow.
In series [5] the test system is bovine peripheral blood mononuclear cells (PBMCs). Details: method as in PMID 30771616. The settings on record: 24 h incubation; ref [55]; read-out: IC50 against bovine PBMCs; cited from earlier work.
Series [6] deals with T.b. brucei bloodstream 427 strain parasites. The series is described as follows: T.b. brucei 72 h REDOX-based (resazurin) viability assay. It is filed as cell-based, Trypanosoma brucei brucei. (In general: Alamar Blue is a resazurin reagent that responds to reducing activity.)
Series [7] deals with T. cruzi. Nature of the series: T. cruzi temporal image-based assay, 24 h exposure. It is filed as cell-based, Trypanosoma cruzi. The settings on record: for IC50: NA = not active at given concentration, read-out: IC50 24 h T. cruzi.
Series [8] concerns T.b. brucei. Nature of the series: T.b. brucei temporal viability (time-kill) assay, 48 h, PrestoBlue. The settings on record: for IC50: read-out: IC50 48 h T.b. brucei. The format is cell-based, Trypanosoma brucei brucei.
Series [9] concerns T. cruzi. Nature of the series: T. cruzi compound wash off assay (48 h with compound, wash off, 72 h without). The format is cell-based, Trypanosoma cruzi. As to conditions: T. cruzi; for IC50: read-out: IC50 Wash Off.
For series [10], the system named is T.b. brucei. The series is described as follows: T.b. brucei temporal viability (time-kill) assay, 24 h, PrestoBlue. The format is cell-based, Trypanosoma brucei brucei. As to conditions: for IC50: read-out: IC50 24 h T.b. brucei. As for the experimental part: Time-kill assays was undertaken as previously described, using the REDOX reagent PrestoBlue® [24]. […] Control compounds were added at the same concentrations at outlined for the resazurin-based assays.

A further series deals with HEK293 cells. Nature of the series: HEK293 cytotoxicity assay. As to conditions: HEK293, 72 h; NA = not active; highest dose 79 µM unless given. It is filed as cell-based, human.
Another series concerns T.b. gambiense STIB930. Nature of the series: T.b. gambiense STIB930 assay, 72 h. It is filed as cell-based. The settings on record: Trypanosoma brucei, unit inferred, read-out: IC50 T. Bg STIB930 (T.b. gambiense).
Series [11] deals with T. cruzi recombinant CYP51 (TcCYP51) (Trypanosoma cruzi, UniProt Q7Z1V1). Nature of the series: biochemical. As to conditions: criterion: IC50 within a log difference to posaconazole.
Method: The inhibitory properties of compounds against T. cruzi recombinant CYP51 (TcCYP51) was determined using an in vitro assay as previously described [33, 41]. Compounds which inhibited T. cruzi in an image-based assay were tested against TcCYP51 in log concentrations (100, 33, 10, 3.3, 1.0, 0.33, 0.1 and 0 µM), with one replicate per dose, as previously described [41]. The control compound posaconazole was incubated at the same concentrations as the test compounds, over two replicates.
Of the fast-acting compounds, if there was more than one compound with activity against T. cruzi, one representative compound from each chemical class was selected. […] Slow-acting compounds were also tested for activity against TcCYP51. The criteria defining a compound with TcCYP51 activity required that the IC50 value was within a log difference to posaconazole, as previously reported [33].
For the next series, the system named is CYP1A2. Also noted: method as in earlier work. As to conditions: Pathogen Box in vitro DMPK data; ref [10]; cited from earlier work.
The subject of the next series is T.b. rhodesiense STIB900. The series is described as follows: T.b. rhodesiense STIB900 assay, 72 h. It is filed as cell-based. As to conditions: Trypanosoma brucei, read-out: IC50 T. bR (T.b. rhodesiense).
The conditions of series [12]: in vivo, species not stated; ref [10]; cited from earlier work.
For series [13] the following is noted: control drugs; ref DrugBank; cited from earlier work.
The conditions of series [14]: ref [8]; cited from earlier work.
Series [15] relates to T. cruzi. Details: method as in PMID 29016289. The settings on record: treated for 40 days; ref [4]; cited from earlier work.
The mark [16] stands for this setting: selectivity index in relation to HEK293 cells.
Setting [17] is: selectivity index in relation to HEPG2 cells.
Setting [18] is: Trypanosoma cruzi, 48 h incubation, wash off, further 72 h.

Sequence of T. cruzi recombinant CYP51 (TcCYP51) (Q7Z1V1 whole entry): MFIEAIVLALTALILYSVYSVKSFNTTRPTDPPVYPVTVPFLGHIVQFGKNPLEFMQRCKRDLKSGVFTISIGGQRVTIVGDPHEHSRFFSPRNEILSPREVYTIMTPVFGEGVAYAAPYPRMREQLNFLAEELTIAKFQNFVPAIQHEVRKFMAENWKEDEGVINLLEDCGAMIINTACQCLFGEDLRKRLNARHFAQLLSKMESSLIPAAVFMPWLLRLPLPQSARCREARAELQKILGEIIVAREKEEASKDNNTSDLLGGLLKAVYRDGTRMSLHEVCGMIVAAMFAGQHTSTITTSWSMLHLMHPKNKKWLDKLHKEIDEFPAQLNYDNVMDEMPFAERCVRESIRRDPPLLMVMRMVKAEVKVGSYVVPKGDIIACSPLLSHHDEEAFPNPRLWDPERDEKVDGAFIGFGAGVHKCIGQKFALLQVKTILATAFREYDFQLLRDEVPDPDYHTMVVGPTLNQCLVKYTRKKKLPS

Turning to `CC(C)=CCC/C(C)=C/CNCCNC1C2CC3CC(C2)CC1C3` (centres unmarked) [MMV687273], the IC50 in the series with T.b. brucei [1] was 5 µM; in the series with T. cruzi [2] it was 500 to 1000 nM; in [3] (Trypanosoma cruzi, TULAHUEN, 48 h, read-out: IC50 (T. cruzi)), 13000 nM; in series [4], 5.4 µM.

For `O=C(Nc1ccc(F)c(-c2nc3ncc(-c4ccccc4)cc3[nH]2)c1)N1CCCC1` [MMV 688372], the IC50 in the series on HEPG2 cells (read-out: IC50 (HEP) (converted)) was 3.6 µM; in series [3] (48 h; read-out: IC50 (T. cruzi)), 130 ± 9.7 nM; in [5] it was 5.3 µM; in [6] (72 h), 14 ± 2.4 nM; in the series with T. cruzi [7], 1600 ± 64 nM; in the series on T.b. brucei [8] it was 13 ± 0.32 nM. Further, the IC50 was 130 ± 2.9 nM with T. cruzi [9] (48 h incubation, wash off, further 72 h); 34 ± 2 nM in the series with T.b. brucei [10]; 1800 ± 50.2 nM with HEK293 cells. Further, the “Emax % (T. cruzi)” value was 99% in series [3] (48 h) and over 95% in series [3] (48 h; listed as MMV688372). For the same molecule, the “Speed of Action (FA/SA)” value with T. cruzi and T.b. brucei was “SA (TC)”. Besides, the “Speed of Action (Table 5)” value in the series with T. cruzi and T.b. brucei is on record as “Slow”. For the same molecule, the “Emax % (T.b. brucei)” value in series [6] (72 h) stood at 99%. Besides, in the series on T. cruzi [7], the “Emax 24 h T. cruzi” value came out at 75%. Moreover, the “Emax 48 h T.b. brucei” value in the series with T.b. brucei [8] stood at 100%. The “Emax 24 h T.b. brucei” value in the series on T.b. brucei [10] came out at 83%.

For `Cc1ccc(S(=O)(=O)Nc2ccc(CN3CCN(C(=O)c4cccc(C#N)c4)CC3)cc2)cc1` [MMV 689028], the “IC50 (HEP)” value with HEPG2 cells is on record as “no activity”. Moreover, the IC50 in the series on T.b. gambiense STIB930 came to 48 ± 1.1 nM; in series [3] (Trypanosoma cruzi, TULAHUEN, 48 h; read-out: IC50 (T. cruzi)) it was 700 ± 130 nM; with T.b. rhodesiense STIB900 (STIB900, 72 h, unit inferred), 280 ± 11 nM; in series [6] (Trypanosoma brucei, 72 h), 120 ± 30 nM; with T. cruzi [7] (Trypanosoma cruzi), 1100 ± 430 nM; with T.b. brucei [8] (Trypanosoma brucei), 110 ± 3.2 nM. In addition, the IC50 came to 390 ± 20 nM in the series with T. cruzi [9] (setting [18]) and 720 ± 380 nM in the series on T.b. brucei [10] (Trypanosoma brucei). For the same molecule, the Emax in [3] (Trypanosoma cruzi, TULAHUEN, 48 h; read-out: Emax % (T. cruzi) (converted)) was 100%; in series [6] (Trypanosoma brucei, 72 h), 99%; in the series with T. cruzi [7] (Trypanosoma cruzi), 91%; in the series with T.b. brucei [8] (Trypanosoma brucei, read-out: Emax 48 h T.b. brucei (converted)), 99%; with T. cruzi [9] (setting [18]) it was 99%; in the series on T.b. brucei [10] (Trypanosoma brucei, read-out: Emax 24 h T.b. brucei (converted)) it was 78%. The “SI (T. cruzi) 3T3” value in [3] (selectivity index in relation to 3T3 host cells; highest dose 3T3 73 µM) is given as over 104. In addition, in [3] (setting [16]), the “SI (T. cruzi) HEK” value was >113 (>113). For the same molecule, the “SI (T. cruzi) (HEP)” value in [3] (setting [17]) is >113 (>113). In the series on T. cruzi and T.b. brucei, the “Speed of Action (FA/SA)” value is “FA (Fast-acting (FA) = IC50 value can be determined following 24 h incubation, <10-fold difference in the IC50 value from 24 to 72 h)”. Further, the “Speed of Action (Table 5)” value in the series with T. cruzi and T.b. brucei is given as “Fast”. The “Inhibition of TcCYP51 (in words)” value in series [11] is reported as “nor exhibited TcCYP51 activity”. Also, the CYP1A2 induction result in the series with CYP1A2 was “induced CYP1A2 activity”. For the same molecule, in series [6] (setting [16]), the “SI (T.b. brucei) HEK” value is >658 (>658). Also, the “SI (T.b. brucei) (HEP)” value in series [6] (setting [17]) is given as >658 (>658). Also, the Half-life in series [12] is given as 6.8 h. Also, in the series on T. cruzi [9] (IC50 from 48 h incubation to IC50 following wash off and further 72 h), the “Fold Change of IC50, wash off vs 48 h” value came out at 0.86 fold. Further, the “IC50 HEK” value in the series on HEK293 cells is on record as “no activity”.

For the molecule `Nc1nc(N)nc(Nc2ccc([As]3SCC(CO)S3)cc2)n1` (centres unmarked) [Melarsoprol, reference compound], the LogP in [13] was 1.3. Also, the half-inhibitory concentration (IC50) with T.b. rhodesiense STIB900 (72 h) was found to be 15 ± 4 nM. Moreover, in series [14], the “Fatality among patients in which encephalopathy develops” value was 50% and the “Post-treatment reactive encephalopathy, share of all treated cases” value is listed as 5–10%.

Regarding `CC1(C)OB(O)c2cc(NC(=O)c3ccc(F)cc3C(F)(F)F)ccc21` [SCYX-7158], the “Cure of mice infected with T. cruzi” value in the series with T. cruzi [15] is reported as 100%.
